The text below walks through data of patent publication US20040002526A1, “Phospholipase D inhibitors and uses thereof” (Cell Therapeutics, Inc., priority 2002, published 2004).

In the first test the target is T1, PLD (phospholipase D).
T1 construct: fused on or other part: N-terminal polyhistidine tag (pFastBac HTc) on either enzyme
The test can be described thus: In vitro assay of PLD activity ([3H]-choline release from labelled PC). Particulars: Table 1, monocyclic thiazolidinones of Formula I; PLD isoform not stated. The format is biochemical, human. Here is the method:
Recombinant PLD1 and PLD2—Human PLD1 and PLD2 were isolated from Sf9 insect cells that had been infected with recombinant baculovirus vector, pFastBac™HTc vector (Life Technologies, Gaithersburg, Md.), containing PLD1 or PLD2 cDNAs.
PLD1 activity was assayed by measuring the generation of [^3H]-choline from [choline-methyl^3H](16:0, 16:0)PC.
The assay procedure for PLD2 was similar to that for PLD1, with the exception that arf1, PKC-α, and GTPγS were omitted from the reaction mixture. After addition of enzymes, the reactions were incubated for 1 hour at room temperature. Twenty microliters of 12% trichloroacetic acid (TCA) then were added to each sample, to stop the reaction and to precipitate the unreacted [choline-methyl^3H](16:0, 16:0)PC. Thereafter, the samples were passed through 0.65 μm Millipore 96 well filter plates to removed the excess [choline-methyl^3H](16:0, 16:0)PC. For each sample the filtrate (50 μl), which contained the [^3H]-choline released by PLD cleavage of PC, was analyzed using a TopCount™ Liquid Scintillation Counter, a product of Packard (Meriden, Conn.).
In general, IC50 refers to the concentration that gives 50% inhibition. Consider `COC(=O)c1ccc(-c2ccc(/C=C3\SC(=O)N(CC4CC4)C3=O)o2)cc1` [Compound 33, 4-[5-(3-cyclopropylmethyl-2,4-dioxo-thiazolidin-5-ylidenemethyl)-furan-2-yl]-benzoic acid methyl ester], for which the IC50 result was “less active”.

With `COC(=O)c1ccc(-c2ccc(/C=C3\SC(=O)NC3=O)o2)cc1` [Compound 31, 4-[5-(2,4-dioxo-thiazolidin-5-ylidenemethyl)-furan-2-yl]-benzoic acid methyl ester], the concentration for half-maximal inhibition (IC50) result is on record as “less active”.

The test is the same for the next values; noted with them: Table 1, monocyclic thiazolidinones of Formula I; PLD isoform not stated; read-out: IC50.
With `COc1ccc(N2C(=O)/C(=C\c3ccc(-c4cccc(C(=O)O)c4)o3)SC2=S)cc1` [Compound 7, 3-{5-[3-(4-methoxy-phenyl)-4-oxo-2-thioxo-thiazolidin-5-ylidenemethyl]-furan-2-yl}-benzoic acid], the half-inhibitory concentration (IC50) is 1300 nM. As to `O=C(O)c1ccc(-c2ccc(/C=C3\SC(=S)N(Cc4cccs4)C3=O)s2)cc1` [Compound 37, 4-[5-(4-oxo-3-thiophen-2-ylmethyl-2-thioxo-thiazolidin-5-ylidenemethyl)-thiophen-2-yl]-benzoic acid], the IC50 amounted to 5000 nM. Same read-out and setting: the figure for `Cc1ccc(CN2C(=O)/C(=C/c3ccc(-c4ccc(C(=O)O)cc4)o3)SC2=S)cc1` [Compound 35, 4-{5-[3-(4-methyl-benzyl)-4-oxo-2-thioxo-thiazolidin-5-ylidenemethyl]-furan-2-yl}-benzoic acid] is 2000 nM; for `CCN1C(=O)/C(=C\c2ccc(-c3cccc(C(=O)O)c3)o2)SC1=S` [Compound 9, 3-[5-(3-ethyl-4-oxo-2-thioxo-thiazolidin-5-ylidenemethyl)-furan-2-yl]-benzoic acid] it is 600 nM; for `O=C(O)CN1C(=O)/C(=C\c2ccc(-c3ccccc3)o2)SC1=S` [Compound 1, [4-oxo-5-(5-phenyl-furan-2-ylmethylene)-2-thioxo-thiazolidin-3-yl]-acetic acid] it is 4000 nM.

Regarding `O=C(O)c1ccc(N2C(=O)/C(=C/c3cc4ccccc4o3)SC2=S)cc1` [Compound 41, 4-(5-benzofuran-2-ylmethylene-4-oxo-2-thioxo-thiazolidin-3-yl)-benzoic acid], the IC50 was 2000 nM. Take `O=C(O)c1ccc(-c2ccc(/C=C3\SC(=S)N(c4cccc(F)c4)C3=O)o2)cc1` [Compound 13, 4-{5-[3-(3-fluoro-phenyl)-4-oxo-2-thioxo-thiazolidin-5-ylidenemethyl]-furan-2-yl}-benzoic acid]: the concentration for half-maximal inhibition (IC50) was determined as 1700 nM.

Consider `Cc1cccc(N2C(=O)/C(=C/c3ccc(-c4cccc(C(=O)O)c4)o3)SC2=S)c1` [Compound 11, 3-[5-(4-oxo-2-thioxo-3-m-tolyl-thiazolidin-5-ylidenemethyl)-furan-2-yl]-benzoic acid], for which the IC50 is less than 400 nM.

Turning to `O=C(O)c1cccc(-c2ccc(/C=C3/SC(=S)N(c4cccc(Cl)c4)C3=O)o2)c1` [Compound 6, 3-{5-[3-(3-chloro-phenyl)-4-oxo-2-thioxo-thiazolidin-5-ylidenemethyl]-furan-2-yl}-benzoic acid], the IC50 was found to be 400 nM. As to `CN(C)c1ccc(/C=C/C=C2\SC(=S)N(c3ccc(C(=O)O)cc3)C2=O)cc1` [Compound 40, 4-{5-[3-(4-dimethylamino-phenyl)-allylidene]-4-oxo-2-thioxo-thiazolidin-3-yl}-benzoic acid], the IC50 is 8000 nM.

For the molecule `N#Cc1ccc(-c2ccc(/C=C3\SC(=S)N(Cc4cccnc4)C3=O)o2)cc1` [Compound 39, 4-[5-(4-oxo-3-pyridin-3-ylmethyl-2-thioxo-thiazolidin-5-ylidenemethyl)-furan-2-yl]-benzonitrile], the half-maximal inhibitory concentration (IC50) came out at 4000 nM. Turning to `O=C(O)c1ccc(-c2ccc(/C=C3\SC(=S)N(C4CCCCC4)C3=O)o2)cc1` [Compound 17, 4-[5-(3-cyclohexyl-4-oxo-2-thioxo-thiazolidin-5-ylidenemethyl)-furan-2-yl]-benzoic acid], the IC50 is 500 nM. Still for that read-out and setting: the figure for `COc1cc(CN2C(=O)/C(=C/c3ccc(-c4ccc(C(=O)O)cc4)o3)SC2=S)cc(OC)c1OC` [Compound 27, 4-{5-[4-oxo-2-thioxo-3-(3,4,5-trimethoxy-benzyl)-thiazolidin-5-ylidenemethyl]-furan-2-yl}-benzoic acid] is 3000 nM; for `O=C(O)c1ccc(-c2ccc(/C=C3\SC(=S)N(c4ccccc4)C3=O)o2)cc1` [Compound 29, 4-[5-(4-oxo-3-phenyl-2-thioxo-thiazolidin-5-ylidenemethyl)-furan-2-yl]-benzoic acid] it is 4000 nM; for `O=C(O)c1cccc(-c2ccc(/C=C3\SC(=S)N(Cc4ccccc4)C3=O)o2)c1` [Compound 16, 3-[5-(3-benzyl-4-oxo-2-thioxo-thiazolidin-5-ylidenemethyl)-furan-2-yl]-benzoic acid] it is less than 900 nM.

As to `O=C(O)CCN1C(=O)/C(=C/c2ccc(-c3ccccc3Cl)o2)SC1=S` [Compound 4, 3-{5-[5-(2-chloro-phenyl)-furan-2-ylmethylene]-4-oxo-2-thioxo-thiazolidin-3-yl}-propionic acid], the IC50 came to 800 nM.

The test is the same for the next values; noted with them: Table 2, bicyclic thiazolidinones of Formula II; PLD isoform not stated; read-out: IC50.
Regarding `CCOC(=O)C1=C(C)N=c2s/c(=C\c3ccc(-c4ccc(C(=O)O)cc4)o3)c(=O)n2C1c1ccc(N(C)C)cc1` (stereo not shown) [Compound 43, 2-[5-(4-Carboxy-phenyl)-furan-2-ylmethylene]-5-(4-dimethylamino-phenyl)-7-methyl-3-oxo-2,3-dihydro-5H-thiazolo[3,2-a]pyrimidine-6-carboxylic acid ethyl ester], the 50% inhibitory concentration (IC50) was found to be 2700 nM. For the molecule `CCOC(=O)C1=C(C)N=c2s/c(=C\c3ccc(-c4ccc(C(=O)O)cc4)o3)c(=O)n2C1c1ccc(Cl)cc1` (stereo not shown) [Compound 50, 2-[5-(4-Carboxy-phenyl)-furan-2-ylmethylene]-5-(4-chloro-phenyl)-7-methyl-3-oxo-2,3-dihydro-5H-thiazolo[3,2-a]pyrimidine-6-carboxylic acid ethyl ester], the half-maximal inhibitory concentration (IC50) was 3400 nM. With `CCOC(=O)C1=C(C)N=c2s/c(=C/c3ccc(-c4cccc(C(=O)O)c4)o3)c(=O)n2C1c1ccccc1OC` (stereo not shown) [Compound 59, 2-[5-(3-Carboxy-phenyl)-furan-2-ylmethylene]-5-(2-methoxy-phenyl)-7-methyl-3-oxo-2,3-dihydro-5H-thiazolo[3,2-a]pyrimidine-6-carboxylic acid ethyl ester], the IC50 was 4100 nM. On to `CCOC(=O)C1=C(C)N=c2s/c(=C\c3ccc(-c4cccc(C(=O)O)c4)o3)c(=O)n2C1c1ccc(OC)cc1` (stereo not shown) [Compound 47, 2-[5-(3-Carboxy-phenyl)-furan-2-ylmethylene]-5-(4-methoxy-phenyl)-7-methyl-3-oxo-2,3-dihydro-5H-thiazolo[3,2-a]pyrimidine-6-carboxylic acid ethyl ester], for which the half-inhibitory concentration (IC50) was 2000 nM. For the molecule `CCOC(=O)C1=C(C)N=c2s/c(=C\c3ccc(-c4cccc(C(=O)O)c4)o3)c(=O)n2C1c1ccc2c(c1)OCO2` (stereo not shown) [Compound 51, 5-Benzo[1,3]dioxol-5-yl-2-[5-(3-carboxy-phenyl)-furan-2-ylmethylene]-7-methyl-3-oxo-2,3-dihydro-5H-thiazolo[3,2-a]pyrimidine-6-carboxylic acid ethyl ester], the half-maximal inhibitory concentration (IC50) was 2700 nM. With `CCOC(=O)C1=C(C)N=c2s/c(=C\c3ccc(-c4ccc(C(=O)O)cc4)o3)c(=O)n2C1c1ccc2c(c1)OCO2` (stereo not shown) [Compound 44, 5-Benzo[1,3]dioxol-5-yl-2-[5-(4-carboxy-phenyl)-furan-2-ylmethylene]-7-methyl-3-oxo-2,3-dihydro-5H-thiazolo[3,2-a]pyrimidine-6-carboxylic acid ethyl ester], the IC50 was found to be 2300 nM.

As to `CCOC(=O)C1=C(C)N=c2s/c(=C\c3ccc(-c4cccc(C(=O)O)c4)o3)c(=O)n2C1c1ccc(N(C)C)cc1` (stereo not shown) [Compound 55, 2-[5-(3-Carboxy-phenyl)-furan-2-ylmethylene]-5-(4-dimethylamino-phenyl)-7-methyl-3-oxo-2,3-dihydro-5H-thiazolo[3,2-a]pyrimidine-6-carboxylic acid ethyl ester], the IC50 amounted to 700 nM. Same read-out and setting: the figure for `CCOC(=O)C1=C(C)N=c2s/c(=C\c3ccc(-c4ccc(C(=O)O)cc4)o3)c(=O)n2C1c1ccc(OC)c(OC)c1` (stereo not shown) [Compound 42, 2-[5-(4-Carboxy-phenyl)-furan-2-ylmethylene]-5-(3,4-dimethoxy-phenyl)-7-methyl-3-oxo-2,3-dihydro-5H-thiazolo[3,2-a]pyrimidine-6-carboxylic acid ethyl ester] is 4500 nM; for `CCOC(=O)C1=C(C)N=c2s/c(=C/c3ccc(-c4ccc(Cl)c(C(=O)O)c4)o3)c(=O)n2C1c1ccccc1OC` (stereo not shown) [Compound 56, 2-[5-(3-Carboxy-4-chloro-phenyl)-furan-2-ylmethylene]-5-(2-methoxy-phenyl)-7-methyl-3-oxo-2,3-dihydro-5H-thiazolo[3,2-a]pyrimidine-6-carboxylic acid ethyl ester] it is 2600 nM.

Still in this test, the particulars now being: Table 3, tricyclic thiazolidinones of Formula II; PLD isoform not stated; read-out: IC50.
Consider `Cc1cc2nc3s/c(=C\c4ccc(-c5ccc(O)c(C(=O)O)c5)o4)c(=O)n3c2cc1C` [Compound 60, 5-[5-(6,7-Dimethyl-3-oxo-benzo[4,5]imidazo[2,1-b]thiazol-2-ylidenemethyl)-furan-2-yl]-2-hydroxy-benzoic acid], for which the 50% inhibitory concentration (IC50) was 3600 nM.
